Assay results published in the NIST ThermoML archive (doi:10.1016/j.fluid.2007.07.016).

Tests used:
[1] = xn = mol fraction of the nth substance listed; details: 101 kPa, Liquid; for viscosity: Capillary tube (Ostwald / Ubbelohde) method; for speed of sound: Linear variable-path acoustic interferometer
[2] = Liquid; for viscosity: Capillary tube (Ostwald / Ubbelohde) method; for speed of sound: Linear variable-path acoustic interferometer

C1CCOC1 [tetrahydrofuran] + Cc1cccc(C)c1
[1], x1 = 1
Details | speed of sound [m/s] | viscosity [mPa·s]
288.15 K | 1323.1 | 0.5129
298.15 K | 1277.6 | 0.458
308.15 K | 1231.5 | 0.4125
318.15 K | 1187.2 | 0.3762

c1ccccc1 [benzene]
[2]
Details | speed of sound, 288.15 K [m/s] | speed of sound, 298.15 K [m/s] | speed of sound, 308.15 K [m/s] | speed of sound, 318.15 K [m/s] | viscosity, 288.15 K [mPa·s] | viscosity, 298.15 K [mPa·s] | viscosity, 308.15 K [mPa·s] | viscosity, 318.15 K [mPa·s]
101 kPa | 1352.4 | – | – | – | 0.693 | – | – | –
101.33 kPa | – | 1303.5 | 1257.4 | 1207.2 | – | 0.6025 | 0.5395 | 0.467

Cc1cccc(C)c1 [1,3-dimethylbenzene]
[2]
Details | speed of sound, 288.15 K [m/s] | speed of sound, 298.15 K [m/s] | speed of sound, 308.15 K [m/s] | speed of sound, 318.15 K [m/s] | viscosity, 288.15 K [mPa·s] | viscosity, 298.15 K [mPa·s] | viscosity, 308.15 K [mPa·s] | viscosity, 318.15 K [mPa·s]
101 kPa | 1373.2 | – | – | – | 0.6696 | – | – | –
101.33 kPa | – | 1326.6 | 1281 | 1243 | – | 0.588 | 0.5229 | 0.4684

C1CCOC1 [tetrahydrofuran] + Cc1cc(C)cc(C)c1
[1], x1 = 1
Details | speed of sound [m/s] | viscosity [mPa·s]
288.15 K | 1323.1 | 0.5129
298.15 K | 1277.6 | 0.458
308.15 K | 1231.5 | 0.4125
318.15 K | 1187.2 | 0.3762

Cc1ccccc1C [1,2-dimethylbenzene]
[2]
Details | speed of sound, 288.15 K [m/s] | speed of sound, 298.15 K [m/s] | speed of sound, 308.15 K [m/s] | speed of sound, 318.15 K [m/s] | viscosity, 288.15 K [mPa·s] | viscosity, 298.15 K [mPa·s] | viscosity, 308.15 K [mPa·s] | viscosity, 318.15 K [mPa·s]
101 kPa | 1388.5 | – | – | – | 0.8623 | – | – | –
101.33 kPa | – | 1350.3 | 1321.4 | 1285.8 | – | 0.7576 | 0.669 | 0.5972

Cc1ccccc1 [toluene]
[2]
Details | speed of sound, 288.15 K [m/s] | speed of sound, 298.15 K [m/s] | speed of sound, 308.15 K [m/s] | speed of sound, 318.15 K [m/s] | viscosity, 288.15 K [mPa·s] | viscosity, 298.15 K [mPa·s] | viscosity, 308.15 K [mPa·s] | viscosity, 318.15 K [mPa·s]
101 kPa | 1358.5 | – | – | – | 0.6456 | – | – | –
101.33 kPa | – | 1310.5 | 1266.2 | 1221 | – | 0.5531 | 0.502 | 0.4379

C1CCOC1 [tetrahydrofuran]
[2]
Details | speed of sound, 288.15 K [m/s] | speed of sound, 298.15 K [m/s] | speed of sound, 308.15 K [m/s] | speed of sound, 318.15 K [m/s] | viscosity, 288.15 K [mPa·s] | viscosity, 298.15 K [mPa·s] | viscosity, 308.15 K [mPa·s] | viscosity, 318.15 K [mPa·s]
101 kPa | 1323.1 | 1277.6 | 1231.5 | 1187.2 | 0.5129 | – | – | –
101.33 kPa | – | 1276.6 | 1231.7 | 1186.4 | – | 0.458 | 0.4125 | 0.3762

c1ccccc1 [benzene] + C1CCOC1
[1], x2 = 0
Details | speed of sound [m/s] | viscosity [mPa·s]
288.15 K | 1352.4 | 0.693
298.15 K | 1303.5 | 0.6025
308.15 K | 1257.4 | 0.5395
318.15 K | 1207.2 | 0.467

Cc1cc(C)cc(C)c1 [1,3,5-trimethylbenzene]
[2]
Details | speed of sound, 288.15 K [m/s] | speed of sound, 298.15 K [m/s] | speed of sound, 308.15 K [m/s] | speed of sound, 318.15 K [m/s] | viscosity, 288.15 K [mPa·s] | viscosity, 298.15 K [mPa·s] | viscosity, 308.15 K [mPa·s] | viscosity, 318.15 K [mPa·s]
101 kPa | 1412.3 | – | – | – | 0.7592 | – | – | –
101.33 kPa | – | 1369.8 | 1325.2 | 1279 | – | 0.6572 | 0.5792 | 0.5066

Cc1ccccc1 [toluene] + C1CCOC1
[1], x2 = 0
Details | speed of sound [m/s] | viscosity [mPa·s]
288.15 K | 1358.5 | 0.6456
298.15 K | 1310.5 | 0.5531
308.15 K | 1266.2 | 0.502
318.15 K | 1221 | 0.4379

Cc1ccc(C)cc1 [1,4-dimethylbenzene]
[2]
Details | speed of sound, 288.15 K [m/s] | speed of sound, 298.15 K [m/s] | speed of sound, 308.15 K [m/s] | speed of sound, 318.15 K [m/s] | viscosity, 288.15 K [mPa·s] | viscosity, 298.15 K [mPa·s] | viscosity, 308.15 K [mPa·s] | viscosity, 318.15 K [mPa·s]
101 kPa | 1357.5 | – | – | – | 0.7084 | – | – | –
101.33 kPa | – | 1316.4 | 1268 | 1230.3 | – | 0.611 | 0.5501 | 0.4912

C1CCOC1 [tetrahydrofuran] + Cc1ccc(C)cc1
[1], x1 = 1
Details | speed of sound [m/s] | viscosity [mPa·s]
288.15 K | 1323.1 | 0.5129
298.15 K | 1277.6 | 0.458
308.15 K | 1231.5 | 0.4125
318.15 K | 1187.2 | 0.3762

C1CCOC1 [tetrahydrofuran] + Cc1ccccc1C
[1], x1 = 1
Details | speed of sound [m/s] | viscosity [mPa·s]
288.15 K | 1323.1 | 0.5129
298.15 K | 1277.6 | 0.458
308.15 K | 1231.5 | 0.4125
318.15 K | 1187.2 | 0.3762
